Data as given in PMC8742467, “Therapeutical interference with the epigenetic landscape of germ cell tumors: a comparative drug study and new mechanistical insights” (Clinical Epigenetics, 2022).
pEC50: −log10 of the molar value.

What was measured:
[1] = system: TCam-2 (SE); assay: XTT cell viability assay, TCam-2; type: cell-based; conditions: Homo sapiens; after 48 h, XTT, n = 4; read-out: EC50 colour/symbol code, SE TCam-2
Procedure: (§1) The […] (XTT) assays were performed as described previously. In summary, for GCT and fibroblast cell lines 5 × 10^3 cells (3 × 10^3 for UC, PCa and RCC cell lines) per 96-well were seeded and different drug concentrations (see Additional file 2: Fig. S2, Additional file 3: Fig. S3) or corresponding solvents were added to the cells the following day. For drug details see Additional file 12: Table S2 C. Each condition was analyzed in four technical replicates and EC50 values were calculated by GraphPad Prism v8.

[2] = system: JAR (CC); assay: XTT cell viability assay, JAR; type: cell-based; conditions: Homo sapiens, after 48 h, n = 4, read-out: EC50 colour/symbol code, CC JAR
Procedure: as §1

[3] = system: SE (seminoma) cell lines; assay: XTT cell viability assay, mean per entity SE; type: cell-based; conditions: Homo sapiens, after 48 h
Procedure: as §1

[4] = system: YST (yolk-sac tumor) cell lines; assay: XTT cell viability assay, mean per entity YST; type: cell-based; conditions: Homo sapiens, after 48 h
Procedure: as §1

[5] = system: CC (choriocarcinoma) cell lines JAR, JEG-3, BeWo; assay: XTT cell viability assay, CC cell lines; type: cell-based; conditions: Homo sapiens; after 48 h, mean per entity
Procedure: as §1

[6] = system: 2102EP-R; assay: Flow cytometry apoptosis (Annexin V/PI), 2102EP-R; type: cell-based, Human; conditions: EC50, 16 h, compared to the parental cell line
Procedure: For Annexin V/PI staining, cells were washed with Annexin V Binding Buffer before being resuspended in 70 µl Annexin V Binding Buffer and 2.5 μl Annexin V FITC-conjugate (both Miltenyi Biotec, Bergisch Gladbach, Germany) and 15 µg PI (Sigma-Aldrich, Taufkirchen, Germany) and incubated in the dark at room temperature for 15 min. 500 µl of Annexin V Binding Buffer was added before measurement.

[7] = system: histone modifications in 2102EP cells; assay: Mass spectrometry analysis of histone modifications (Mod Spec); type: cell-based, Human
How it was run: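 2102EP cells were treated for 16 h with EC50 concentrations of Quisinostat, JIB-04, Chaetocin, MZ-1, LP99, PRT4165 or GSK343, with DMSO as solvent control. After trypsin harvest, histones were extracted and analysed by mass spectrometry. Raw data were converted to z-scores.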

[8] = system: DNA methylation (5mC, 5hmC) in 2102EP cells; assay: DNA slot blot (5mC, 5hmC); type: cell-based, Human; conditions: 24 h
Procedure: Purity of DNA was verified using NanoDrop 260/280 ratio and agarose gel electrophoresis. DNA was diluted in H2O to 200 ng, 100 ng and 50 ng in 200 µl per slot. Slot-Blotter device (Carl Roth GmbH + Co KG, Karlsruhe, Germany) was assembled as according to the manual. DNA was blotted onto a positively charged nylon membrane (Carl Roth GmbH + Co KG, Karlsruhe, Germany) using vacuum application. Three identical membranes were prepared. The membranes were air-dried for 15—20 min and UV-crosslinked (20 s (s), 1200 mJ/cm^2). One membrane was stained with methylene blue (0.02% methylene blue (Merck Millipore, Darmstadt, Germany) in 0.3 M sodium acetate (pH 5.2)) to validate DNA loading across the samples. The remaining two membranes were blocked in 5% milk powder in PBST for 1 h at RT. Membranes were incubated with 5mC or 5hmC antibody overnight at 4 °C. After washing, membranes were incubated with secondary antibody for 2 h at RT. Signals were detected using the ChemiDoc Imaging Systems (Bio-Rad Laboratories, Feldkirchen, Germany).

[9] = 2102EP cells, Mod Spec raw data
[10] = 2102EP, EC50, 16 h, vs solvent control

## CCCc1cc(C)[nH]c(=O)c1CNC(=O)c1cc(-c2ccnc(N3CCN(C)CC3)c2)cc2c1cnn2C(C)C [GSK343]
[1]
  pEC50: 4.30 to 6.00
[2]
  pEC50: 4.30 to 6.00
[3]
  pEC50: 4.92
[4]
  pEC50: 5.21
[5]
  pEC50: 4.98
[6]
  apoptosis induction in 2102EP-R: did not induce apoptosis
[7]; [9]
  H1.4: K25AC, % of peptide pool: 0.006216%
  H1.4: K25ME1, % of peptide pool: 2.263%
  H1.4: K25ME2, % of peptide pool: 0.05379%
  H1.4: K25ME3, % of peptide pool: 0.00622%
  H1.4: K25UN, % of peptide pool: 97.6705%
  H2A1: K13AC, % of peptide pool: 0.008349%
  H2A1: K13UN, % of peptide pool: 99.9917%
  H2A1: K15AC, % of peptide pool: 0.01155%
  H2A1: K15UB, % of peptide pool: 0%
  H2A1: K15UN, % of peptide pool: 99.9884%
  H2A3: K13AC, % of peptide pool: 0.06695%
  H2A3: K13UN, % of peptide pool: 99.933%
  H2A3: K15AC, % of peptide pool: 0.06714%
  H2A3: K15UB, % of peptide pool: 0%
  H2A3: K15UN, % of peptide pool: 99.9329%
  H2A: K5AC, % of peptide pool: 13.1006%
  H2A: K5UN, % of peptide pool: 86.8994%
  H2A: K9AC, % of peptide pool: 1.639%
  H2A: K9UN, % of peptide pool: 98.3613%
  H2A: K36AC, % of peptide pool: 0.03993%
  H2A: K36UN, % of peptide pool: 99.9601%
  H3: K9AC, % of peptide pool: 0.6993%
  H3: K9ME1, % of peptide pool: 34.216%
  H3: K9ME2, % of peptide pool: 32.7434%
  H3: K9ME3, % of peptide pool: 3.375%
  H3: K9UN, % of peptide pool: 28.9663%
  H3: K14AC, % of peptide pool: 31.7092%
  H3: K14UN, % of peptide pool: 68.2908%
  H3: K18AC, % of peptide pool: 12.5517%
  H3: K18ME1, % of peptide pool: 0.1858%
  H3: K18UN, % of peptide pool: 87.2625%
  H3: K23AC, % of peptide pool: 21.2228%
  H3: K23ME1, % of peptide pool: 0.01722%
  H3: K23UN, % of peptide pool: 78.76%
  H3: K56AC, % of peptide pool: 0.2947%
  H3: K56ME1, % of peptide pool: 0.4365%
  H3: K56UN, % of peptide pool: 99.2689%
  H3: K64AC, % of peptide pool: 0.01667%
  H3: K64UN, % of peptide pool: 99.9833%
  H3: K79AC, % of peptide pool: 0.7184%
  H3: K79ME1, % of peptide pool: 16.7848%
  H3: K79ME2, % of peptide pool: 6.651%
  H3: K79ME3, % of peptide pool: 10.1333%
  H3: K79UN, % of peptide pool: 65.7124%
  H3: K122AC, % of peptide pool: 0.136%
  H3: K122UN, % of peptide pool: 99.864%
  H3: Q19ME1, % of peptide pool: 0.007707%
  H3: Q19UN, % of peptide pool: 99.9923%
  H3: Q55ME1, % of peptide pool: 0.1478%
  H3: Q55UN, % of peptide pool: 99.8522%
  H3: R42ME2, % of peptide pool: 3.196%
  H3: R42UN, % of peptide pool: 96.8039%
  H3: R49ME2, % of peptide pool: 7.636%
  H3: R49UN, % of peptide pool: 92.3639%
  H3R2UN: K4AC, % of peptide pool: 0.06759%
  H3R2UN: K4ME1, % of peptide pool: 18.4584%
  H3R2UN: K4ME2, % of peptide pool: 0.1346%
  H3R2UN: K4ME3, % of peptide pool: 0.0559%
  H3R2UN: K4UN, % of peptide pool: 81.2835%
  H3R2UN: Q5ME1, % of peptide pool: 0.1125%
  H3R2UN: Q5UN, % of peptide pool: 99.8875%
  H3.1: K27AC, % of peptide pool: 2.595%
  H3.1: K27ME1, % of peptide pool: 48.9633%
  H3.1: K27ME2, % of peptide pool: 15.6374%
  H3.1: K27ME3, % of peptide pool: 2.258%
  H3.1: K27UN, % of peptide pool: 30.5467%
  H3.1: K36AC, % of peptide pool: 0.2238%
  H3.1: K36ME1, % of peptide pool: 13.8902%
  H3.1: K36ME2, % of peptide pool: 50.2838%
  H3.1: K36ME3, % of peptide pool: 20.6064%
  H3.1: K36UN, % of peptide pool: 14.9959%
  H3.3: K27AC, % of peptide pool: 7.138%
  H3.3: K27M, % of peptide pool: 0%
  H3.3: K27ME1, % of peptide pool: 44.2688%
  H3.3: K27ME2, % of peptide pool: 12.6213%
  H3.3: K27ME3, % of peptide pool: 4.2957%
  H3.3: K27UN, % of peptide pool: 31.6757%
  H3.3: K36AC, % of peptide pool: 3.015%
  H3.3: K36ME1, % of peptide pool: 12.2658%
  H3.3: K36ME2, % of peptide pool: 51.706%
  H3.3: K36ME3, % of peptide pool: 19.9849%
  H3.3: K36UN, % of peptide pool: 13.0282%
  H4: K5AC, % of peptide pool: 7.684%
  H4: K5UN, % of peptide pool: 92.3159%
  H4: K8AC, % of peptide pool: 10.6823%
  H4: K8UN, % of peptide pool: 89.3177%
[7]; 2102EP cells, Mod Spec raw data, histone H4 K12 acetylated
  H4: K12AC, % of peptide pool: 6.039 % of peptide pool
[7]; 2102EP cells, Mod Spec raw data, histone H4 K12 unmodified
  H4: K12UN, % of peptide pool: 93.9609 % of peptide pool
[7]; 2102EP cells, Mod Spec raw data, histone H4 K16 acetylated
  H4: K16AC, % of peptide pool: 41.5696 % of peptide pool
[7]; 2102EP cells, Mod Spec raw data, histone H4 K16 unmodified
  H4: K16UN, % of peptide pool: 58.4304 % of peptide pool
[7]; 2102EP cells, Mod Spec raw data, histone H4 K20 acetylated
  H4: K20AC, % of peptide pool: 21.2904 % of peptide pool
[7]; 2102EP cells, Mod Spec raw data, histone H4 K20 dimethylated
  H4: K20ME2, % of peptide pool: 42.0499 % of peptide pool
[7]; 2102EP cells, Mod Spec raw data, histone H4 K20 monomethylated
  H4: K20ME1, % of peptide pool: 3.554 % of peptide pool
[7]; 2102EP cells, Mod Spec raw data, histone H4 K20 trimethylated
  H4: K20ME3, % of peptide pool: 1.778 % of peptide pool
[7]; 2102EP cells, Mod Spec raw data, histone H4 K20 unmodified
  H4: K20UN, % of peptide pool: 31.3272 % of peptide pool
[7]; [10]
  change of histone modifications of the expected mode of action (Mod Spec): decreased H3K27 methylation
  off-target changes of histone modifications (Mod Spec): increase of H4K20ac
[8]
  5hmC levels increase compared to solvent control: 30%
[8]; solvent control set to 100%
  5mC levels compared to solvent control: 52%
